# Measurements reported in patent US7728012B2, “Carboxamide compounds and their use as calpain inhibitors” (Abbott GmbH & Co. KG, priority 2006, dated 2010).
# Legend:
# Type in all cases: biochemical
# [1] = biological target: T1, calpain-I isolated from human erythrocytes (Homo sapiens, UniProt P07384); test: Calpain I kinetic fluorescence enzyme inhibition assay; details: apparent Ki from IC50 by Cheng-Prussoff; average of 2 to 4 dose-effect plots
# T1 construct: calpain-I—isolated from human erythrocytes; purchased Calbiochem 208713; host or cells: human erythrocytes (tissue isolate)
# T1 sequence (P07384 1-714): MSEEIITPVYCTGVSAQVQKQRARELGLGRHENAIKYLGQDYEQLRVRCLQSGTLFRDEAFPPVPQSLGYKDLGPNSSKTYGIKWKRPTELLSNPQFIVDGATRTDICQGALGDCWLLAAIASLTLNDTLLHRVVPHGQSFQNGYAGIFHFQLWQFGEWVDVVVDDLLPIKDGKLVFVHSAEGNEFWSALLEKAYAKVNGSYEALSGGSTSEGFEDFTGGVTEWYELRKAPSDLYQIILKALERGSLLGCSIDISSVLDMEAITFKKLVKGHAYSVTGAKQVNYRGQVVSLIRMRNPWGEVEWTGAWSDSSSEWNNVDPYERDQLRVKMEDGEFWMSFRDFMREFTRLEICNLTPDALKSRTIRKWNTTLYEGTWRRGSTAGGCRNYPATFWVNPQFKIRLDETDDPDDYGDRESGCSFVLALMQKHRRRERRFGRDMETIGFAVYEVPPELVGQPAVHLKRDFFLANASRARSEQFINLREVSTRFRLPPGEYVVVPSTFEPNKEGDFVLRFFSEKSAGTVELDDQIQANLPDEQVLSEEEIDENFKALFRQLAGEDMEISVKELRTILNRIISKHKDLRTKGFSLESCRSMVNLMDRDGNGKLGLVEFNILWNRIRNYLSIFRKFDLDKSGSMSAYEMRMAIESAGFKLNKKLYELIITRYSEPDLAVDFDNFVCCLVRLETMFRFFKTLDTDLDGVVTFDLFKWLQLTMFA
# T1 sequence (P04632 1-268 partner): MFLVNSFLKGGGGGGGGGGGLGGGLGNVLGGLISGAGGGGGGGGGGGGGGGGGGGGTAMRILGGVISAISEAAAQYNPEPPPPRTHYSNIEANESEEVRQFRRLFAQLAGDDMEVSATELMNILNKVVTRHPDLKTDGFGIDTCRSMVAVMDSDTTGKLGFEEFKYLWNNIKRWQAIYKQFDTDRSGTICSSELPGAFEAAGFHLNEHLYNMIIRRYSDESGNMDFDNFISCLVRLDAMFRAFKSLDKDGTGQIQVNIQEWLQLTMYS
# [2] = biological target: T2, cathepsin B isolated from human liver (Homo sapiens, UniProt P07858); test: Cathepsin B kinetic fluorescence enzyme inhibition assay; details: selectivity ratio versus calpain I
# T2 construct: cathepsin B—isolated from human liver; purchased Calbiochem 219362; host or cells: human liver (tissue isolate)
# Summary of the method: (§1)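 Cathepsin B (0.25 nM, human liver) with 100 μM Z-Phe-Arg-AMC; L (1 nM, human liver) with 2 μM Z-Phe-Arg-AMC; S (0.5 nM, recombinant) with 20 μM Z-Val-Val-Arg-AMC. pH 6.0 MES buffer, 2.5 mM L-cysteine, room temperature. Kinetic fluorescence (ex 390/em 460 nm); apparent Ki from IC50 by Cheng-Prusoff.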
# [3] = biological target: T3, cathepsin K activated from recombinant human procathepsin K (Homo sapiens, UniProt P43235); test: Cathepsin K kinetic fluorescence enzyme inhibition assay; details: selectivity ratio versus calpain I
# T3 construct: purchased Calbiochem 342001; host or cells: E. coli
# T3 sequence (P43235 115-329): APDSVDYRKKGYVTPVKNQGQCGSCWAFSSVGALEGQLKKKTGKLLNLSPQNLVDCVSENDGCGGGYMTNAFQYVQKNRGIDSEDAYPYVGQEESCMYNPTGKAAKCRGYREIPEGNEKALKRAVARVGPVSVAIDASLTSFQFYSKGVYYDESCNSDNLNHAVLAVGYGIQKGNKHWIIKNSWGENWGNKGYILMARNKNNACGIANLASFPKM
# [4] = biological target: T4, cathepsin L isolated from human liver (Homo sapiens, UniProt P07711); test: Cathepsin L kinetic fluorescence enzyme inhibition assay; details: selectivity ratio versus calpain I
# T4 construct: cathepsin L—isolated from human liver; purchased Calbiochem 219402; host or cells: human liver (tissue isolate)
# Summary of the method: as §1
# [5] = biological target: T5, recombinant human cathepsin S (Homo sapiens, UniProt P25774); test: Cathepsin S kinetic fluorescence enzyme inhibition assay; details: selectivity ratio versus calpain I
# T5 construct: purchased Calbiochem 219343; host or cells: E. coli
# Summary of the method: as §1
# T5 sequence (P25774 115-331): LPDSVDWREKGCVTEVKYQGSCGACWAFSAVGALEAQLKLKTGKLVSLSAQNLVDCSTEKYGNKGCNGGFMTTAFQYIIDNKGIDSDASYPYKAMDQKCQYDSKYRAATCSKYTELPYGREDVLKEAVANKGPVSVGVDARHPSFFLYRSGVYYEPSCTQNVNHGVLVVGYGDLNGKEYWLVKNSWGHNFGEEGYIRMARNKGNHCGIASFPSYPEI
# T4 sequence (P07711 114-333): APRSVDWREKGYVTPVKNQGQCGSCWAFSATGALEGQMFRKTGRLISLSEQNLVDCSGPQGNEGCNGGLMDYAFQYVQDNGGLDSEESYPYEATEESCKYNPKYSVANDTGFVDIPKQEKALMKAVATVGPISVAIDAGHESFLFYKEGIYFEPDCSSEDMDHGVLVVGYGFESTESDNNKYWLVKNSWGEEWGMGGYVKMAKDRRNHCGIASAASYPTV
SMILES,Ki [1] [nM],Sel cat. B (Ki(cathepsin B)/Ki(calpain) ratio) [2],Sel cat. K (Ki(cathepsin K)/Ki(calpain) ratio) [3],Sel cat. L (Ki(cathepsin L)/Ki(calpain) ratio) [4],Sel cat. S (Ki(cathepsin S)/Ki(calpain) ratio) [5]
"NC(=O)C(=O)C(Cc1ccccc1)NC(=O)c1cccnc1-n1ccc(-c2cccc3ccccc23)n1 (centres unmarked) [Example 110, N-[3-Amino-2,3-dioxo-1-(phenylmethyl)propyl]-2-(3-naphthalen-1-yl-1H-pyrazol-1-yl)pyridine-3-carboxamide]",≤ 40,++ (Ki(cathepsin B)/Ki(calpain) ratio of ≧30),++ (Ki(cathepsin K)/Ki(calpain) ratio of ≧30),++ (Ki(cathepsin L)/Ki(calpain) ratio of ≧50),++ (Ki(cathepsin S)/Ki(calpain) ratio of ≧100)
"COc1ccc(CC(NC(=O)c2cccnc2-n2ccc(-c3ccc(F)cc3Cl)n2)C(=O)C(N)=O)cc1 (centres unmarked) [Example 111, N-(3-Amino-1-{[4-(methyloxy)phenyl]methyl}-2,3-dioxopropyl)-2-[3-(2-chloro-4-fluorophenyl)-1H-pyrazol-1-yl]pyridine-3-carboxamide]",≤ 40,++ (Ki(cathepsin B)/Ki(calpain) ratio of ≧30),++ (Ki(cathepsin K)/Ki(calpain) ratio of ≧30),++ (Ki(cathepsin L)/Ki(calpain) ratio of ≧50),++ (Ki(cathepsin S)/Ki(calpain) ratio of ≧100)
"NC(=O)C(=O)C(Cc1ccccc1)NC(=O)c1cccnc1-n1ccc(-c2cc(Cl)ccc2Cl)n1 (centres unmarked) [Example 112, N-[3-Amino-2,3-dioxo-1-(phenylmethyl)propyl]-2-[3-(2,5-dichlorophenyl)-1H-pyrazol-1-yl]pyridine-3-carboxamide]",≤ 40,++ (Ki(cathepsin B)/Ki(calpain) ratio of ≧30),++ (Ki(cathepsin K)/Ki(calpain) ratio of ≧30),++ (Ki(cathepsin L)/Ki(calpain) ratio of ≧50),++ (Ki(cathepsin S)/Ki(calpain) ratio of ≧100)
"NC(=O)C(=O)C(Cc1ccc(F)cc1)NC(=O)c1cccnc1-n1ccc(-c2ccc(Cl)cc2Cl)n1 (centres unmarked) [Example 114, N-{-3-Amino-1-[(4-fluorophenyl)methyl]-2,3-dioxopropyl}-2-[3-(2,4-dichlorophenyl)-1H-pyrazol-1-yl]pyridine-3-carboxamide]",40 to 100,++ (Ki(cathepsin B)/Ki(calpain) ratio of ≧30),++ (Ki(cathepsin K)/Ki(calpain) ratio of ≧30),++ (Ki(cathepsin L)/Ki(calpain) ratio of ≧50),++ (Ki(cathepsin S)/Ki(calpain) ratio of ≧100)
"NC(=O)C(=O)C(Cc1ccccc1)NC(=O)c1cccnc1-n1ccc(-c2cccc(Cl)c2Cl)n1 (centres unmarked) [Example 115, N-[3-Amino-2,3-dioxo-1-(phenylmethyl)propyl]-2-[3-(2,3-dichlorophenyl)-1H-pyrazol-1-yl]pyridine-3-carboxamide]",≤ 40,++ (Ki(cathepsin B)/Ki(calpain) ratio of ≧30),++ (Ki(cathepsin K)/Ki(calpain) ratio of ≧30),++ (Ki(cathepsin L)/Ki(calpain) ratio of ≧50),++ (Ki(cathepsin S)/Ki(calpain) ratio of ≧100)
"NC(=O)C(=O)C(Cc1ccccc1)NC(=O)c1cccnc1-n1ccc(-c2c(F)cc(F)cc2F)n1 (centres unmarked) [Example 116, N-[3-Amino-2,3-dioxo-1-(phenylmethyl)propyl]-2-[3-(2,4,6-trifluorophenyl)-1H-pyrazol-1-yl]pyridine-3-carboxamide]",≤ 40,++ (Ki(cathepsin B)/Ki(calpain) ratio of ≧30),+ (10≦Ki(cathepsin K)/Ki(calpain)<30),++ (Ki(cathepsin L)/Ki(calpain) ratio of ≧50),++ (Ki(cathepsin S)/Ki(calpain) ratio of ≧100)
"COc1ccc(-c2ccn(-c3ncccc3C(=O)NC(Cc3ccccc3)C(=O)C(N)=O)n2)c(OC)c1 (centres unmarked) [Example 117, N-[3-Amino-2,3-dioxo-1-(phenylmethyl)propyl]-2-{3-[2,4-bis(methyloxy)phenyl]-1H-pyrazol-1-yl}pyridine-3-carboxamide]",≤ 40,++ (Ki(cathepsin B)/Ki(calpain) ratio of ≧30),++ (Ki(cathepsin K)/Ki(calpain) ratio of ≧30),++ (Ki(cathepsin L)/Ki(calpain) ratio of ≧50),++ (Ki(cathepsin S)/Ki(calpain) ratio of ≧100)
"NC(=O)C(=O)C(Cc1ccccc1)NC(=O)c1cccnc1-n1ccc(-c2ccc3c(c2)OC(F)(F)O3)n1 (centres unmarked) [Example 118, N-[3-Amino-2,3-dioxo-1-(phenylmethyl)propyl]-2-[3-(2,2-difluoro-1,3-benzodioxol-5-yl)-1H-pyrazol-1-yl]pyridine-3-carboxamide]",≤ 40,++ (Ki(cathepsin B)/Ki(calpain) ratio of ≧30),+ (10≦Ki(cathepsin K)/Ki(calpain)<30),++ (Ki(cathepsin L)/Ki(calpain) ratio of ≧50),++ (Ki(cathepsin S)/Ki(calpain) ratio of ≧100)
"NC(=O)C(=O)C(Cc1ccccc1)NC(=O)c1cccnc1-n1ccc(-c2cccc3c2OC(F)(F)O3)n1 (centres unmarked) [Example 119, N-[3-Amino-2,3-dioxo-1-(phenylmethyl)propyl]-2-[3-(2,2-difluoro-1,3-benzodioxol-4-yl)-1H-pyrazol-1-yl]pyridine-3-carboxamide]",≤ 40,++ (Ki(cathepsin B)/Ki(calpain) ratio of ≧30),++ (Ki(cathepsin K)/Ki(calpain) ratio of ≧30),++ (Ki(cathepsin L)/Ki(calpain) ratio of ≧50),++ (Ki(cathepsin S)/Ki(calpain) ratio of ≧100)
"NC(=O)C(=O)C(Cc1ccccc1)NC(=O)c1cccnc1-n1ccc(-c2c(F)ccc(Cl)c2Cl)n1 (centres unmarked) [Example 120, N-[3-Amino-2,3-dioxo-1-(phenylmethyl)propyl]-2-[3-(2,3-dichloro-6-fluorophenyl)-1H-pyrazol-1-yl]pyridine-3-carboxamide]",≤ 40,++ (Ki(cathepsin B)/Ki(calpain) ratio of ≧30),++ (Ki(cathepsin K)/Ki(calpain) ratio of ≧30),+ (30≦Ki(cathepsin L)/Ki(calpain)<50),++ (Ki(cathepsin S)/Ki(calpain) ratio of ≧100)
